Measurements as given in patent publication US20160243198A1, “Pharmaceutical Composition for Preventing or Treating Osteoporosis Which Comprises Neuropeptide Y as Active Ingredient” (KYUNGPOOK NATIONAL UNIVERSITY INDUSTRY-ACADEMIC COOPERATION …, priority 2013, published 2016).
“Also recorded” adds a separate entry of the source.

Columns and labels:
[1] = tested on: bone-marrow haematopoietic stem cells and bone-marrow hematopoietic progenitor cells; experiment: Competitive transplantation assay; type: in vivo, mice
Method: As an experimental method capable of determining the migration of bone-marrow haematopoietic stem cells and bone-marrow hematopoietic progenitor cells present in the bone marrows of the mice into blood, a competitive transplantation assay were performed.
(§1) A mixture of bone marrow cells (2×10^6) of Ly5.2 (C57BL/6) donor mice and bone marrow cells (2×10^6) of Ly5.1 (BoyJ) mice was injected to recipient mice whose whole bodies were exposed to 10 Gy irradiations (2×5 Gy) through the tail veins thereof. On the week 8 of transplantation of the bone marrow cells, blood was drawn from the recipient mice, and analyzed by an LSR II (BD science) flow cytometer using CD45.1-PE (BD Science), and CD45.2-FITC (BD Science) antibodies. Repopulating units (RU) are indicated using a calculation method represented by the following Equation 1.
Repopulating unit (RU)=(20×CD45.2%)/(100−CD45.2%) [Equation 1]
as §1, with “([…])” for “(2×10^6)”, “Repopulating units (RU) are indicated using a calculation method represented by the following Equation 1.” left out

[2] = tested on: bone-marrow haematopoietic stem cell adhesion factors; experiment: Expression of bone-marrow haematopoietic stem cell adhesion factors in bone marrow after tail-vein injection (real-time quantitative PCR); type: in vivo, mice; conditions: 50 μg/kg through the tail veins; bone marrow taken after 60 minutes; p<0.05, n=3
Method: (§2) Neuropeptide Y, a Y1 agonist, and a Y1 antagonist were purchased from Bache, and used. To perform an in vitro experiment, 1 nM NPY, and 5 nM NPY were diluted with a medium, and injected. For the in vivo experiment, a total of 15 mice (three mice in each group) were also anesthetized with a mixed solution of 100 mg/kg ketamine and 10 mg/kg xylazine, and 50 μg/kg of either neuropeptide Y, Y1 agonist, or Y1 antagonist, and 100 μl of PBS (Gibco) were injected through the tail veins of the mice.
(§3) To measure expression levels of haematopoietic stem cell adhesion factors (Sdf-1a, Kit1, Angpt1, IL7, Vcam1, and Spp1) present in the osteoblasts, a real-time quantitative polymerase chain reaction (PCR) method was used.
(§4) A total of RNAs were extracted from a cell lysate and bone marrow cells using an RNeasy Plus Mini kit (Qiagen, Korea, Ltd), and cDNA was synthesized from a total of 5 μg of RNA using a kit commercially available from Clontech (Mountain View, Calif.). Also, real-time quantitative PCR, which included denaturation at 95° C. for 10 minutes; and 40 cycles with one cycle consisting of denaturation at 95° C. for 10 seconds, annealing at 58° C. for 15 seconds, and extension at 72° C. for 20 seconds, was performed using a Corbett research RG-6000 real-time PCR machine. […]

[3] = tested on: bone-marrow haematopoietic stem cells; experiment: Flow cytometry analysis (FAC) of bone-marrow haematopoietic stem cells; type: in vivo, mice; conditions: 50 μg/kg; bone marrow after 60 minutes; compared to PBS; p<0.05, n=3
Method: To determine whether there is a change in the number of the bone-marrow haematopoietic stem cells present in the bone marrows from the mice, NPY and PBS were injected to normal mice. After 60 minutes, the bone marrows were collected, and analyzed by flow cytometry analysis (FAC) using five antibodies Lineage, Sca-1, c-kit, CD48, and CD150, which were markers for the bone-marrow haematopoietic stem cells.
To analyze the bone-marrow haematopoietic stem cells, the bone marrows collected from the tibias and femurs of 4- to 6-week-old C57BL/6 mice was added in an ammonium chloride solution (Stem Cell Technologies, Inc. 1:4) to remove red blood cells. Thereafter, the red blood cells were washed with a PBS (Gibco) solution supplemented with 10% fetal bovine serum (FBS, Gibco) and 1% sodium azide (Sigma-Aldrich), and then centrifuged at 300×g for 10 minutes. Hemoblasts included in the bone marrow were removed with MAC beads (MiltenyiBiotec) using a biotinylated lineage antibody (MiltenyiBiotec), and the remaining cells were reacted with Sca-1-PECY7, c-kit-APC, CD150-PE, CD48-FITC (BD Science) antibodies at 4° C. for 30 minutes, and then analyzed using an LSRII (BD Science) flow cytometer.
First, normal mice were divided into two groups (three mice in each group), and 50 μg/kg of neuropeptide Y and 100 μl of PBS (Gibco) were administered to the mice. […]

[4] = tested on: haematopoietic stem cell adhesion factors (Sdf-1a, Kit1, Angpt1, IL7, Vcam1, and Spp1) present in the osteoblasts; experiment: Expression of haematopoietic stem cell adhesion factors in osteoblasts treated with neuropeptide Y (real-time quantitative PCR); type: cell-based, C57BL/6 mice; conditions: neuropeptide Y 0, 1, and 5 nM for 3 days; compared to untreated osteoblasts (control); p<0.05, n=3
Method: as §2
Four- to six-week-old C57BL/6 mice were anesthetized, and sacrificed, and their tibias and femurs were incised. […]
as §3, §4

[5] = tested on: bone-marrow hematopoietic progenitor cells in blood; experiment: Colony-forming cell (CFC) assay of blood after tail-vein injection; type: in vivo, mice; conditions: 50 μg/kg tail vein; after 60 minutes of injection (of 15 minutes, 60 minutes, 12 hours)
Method: as §2
A colony-forming cell (CFC) assay was performed to measure the number of bone-marrow hematopoietic progenitor cells in blood from mice.
First, the mice were anesthetized, and 500 μl to 700 μl of blood was drawn from the hearts of the mice, and collected in a heparin tube. Thereafter, the collected blood was added to an ammonium chloride solution (Stem Cell Technologies, Inc. 1:10), and kept in ice for 15 minutes to remove red blood cells. The blood was shaken at intervals of 2 to 3 minutes to sufficiently remove the red blood cells, and centrifuged at 1,000 rpm for 7 minutes. […] Then, colonies formed on the flask were counted. […]
To examine an effect of the activation of the neuropeptide Y receptor on the release of the bone marrow precursor cells into the blood, the colony number of the bone marrow precursor cells was also counted using a CFC assay as described in Example 1-4. […]

osteoporosis model = experiment: Osteoporosis model (ovariotomy) and control model, micro-CT of femurs; type: in vivo, C57BL/6 female mice; conditions: for entire bone density in micro-CT images: compared to PBS
Method: Also, a total 6 female mice (three mice in each group), 12 weeks old, were subjected to an ovariotomy to establish an osteoporosis model. After a week, 50 μg/kg of neuropeptide Y and 100 μl of PBS (Gibco) were abdominally administered twice a day to the female mice at an interval of 12 hours for 3 weeks. As the control, a total 6 female mice (three mice in each group) were subjected to […] to establish a Sham model for osteoporosis. In this case, 100 μl of PBS or 50 μg/kg of neuropeptide Y was abdominally administered. […] To measure a bone density (bone volume/total volume) and a trabecular thickness, volume fractions with 2.5×0.5×0.5 mm^3 in the same portions of the femurs in each group were measured using Siemens Inveon software. First, three C57BL/6 female mice in each group, 12 weeks old, were subjected to an ovariotomy to establish an osteoporosis model. After a week, 50 μg/kg of neuropeptide Y and 100 μl of PBS (Gibco) were abdominally administered twice a day to the female mice at an interval of 12 hours for 3 weeks. As the control, the normal mice which were subjected to subcutaneous incision alone and into which 100 μl of PBS and 50 μg/kg of neuropeptide Y were abdominally administered were used. On the 22nd day, the femurs of the mice were isolated, and refrigerated in 80% ethanol, and the bone density and the trabecular thickness were then measured using micro CT.

S1P receptor = conditions: administered so as to reduce the number of the osteoclasts in the bone marrow; cited from earlier work
[6] = osteoporotic (OVX) mice, 50 μg/kg abdominally twice a day for 3 weeks, versus PBS, n=3

Row | Compound | number of the haematopoietic stem cells (CD45.2+ cells) in the bone marrows of injected mice ([1]; compared to bone marrows of mice into which PBS was injected) | ratio of the CD45.2+ cells ([1]; donor bone marrow of injected mice mixed with Ly5.1 bone marrow, recipient blood 8 weeks after transplantation, compared to PBS) | expression levels of the adhesion factors Sdf-1a, Kit1, Angpt1, and Vcam1 in bone marrow [2] | bone-marrow haematopoietic stem cells labeled with Lin−, Sca-1+, c-kit+, CD48−, and CD150+ in the bone marrow [3] | expression levels of Sdf-1a, Kit1, and Angpt1 in osteoblasts [4] | colony number of the bone-marrow hematopoietic progenitor cells released into the blood [5] | entire bone density in micro-CT images (osteoporosis model; control (Sham) model, 50 μg/kg abdominally) | decrease in bone density and trabecular thickness of the osteoporotic mice (osteoporosis model; long-term administration in the osteoporosis model) | entire bone density in micro-CT images (osteoporosis model; osteoporotic (OVX) mice, 50 μg/kg abdominally twice a day for 3 weeks) | bone density (BV/TV, %) (osteoporosis model; [6]) | trabecular thickness (mm) (osteoporosis model; [6]) | bone formation (S1P receptor)
1 | neuropeptide Y | lower | reduced | decreased; also recorded: generally reduced | decreased in the bone marrow | decreased in a ration-dependent manner | largest colony number | higher entire bone density; also recorded: increased | inhibited | higher entire bone density; also recorded: remarkably increased | higher | higher | –
2 | CCCCCCCCc1ccc(CCC(N)(CO)CO)cc1 [FTY720] | – | – | – | – | – | – | – | – | – | – | – | increases
3 | CCCCCCCCCCCCC/C=C/[C@@H](O)[C@@H](N)COP(=O)(O)O [sphingosine-1-phosphate] | – | – | – | – | – | – | – | – | – | – | – | increases
